Structures can show the parent of a compound that is named as a salt.
Key:
[1] = target: LMP7 (purified human immuno proteasome) (Homo sapiens, UniProt P28062); assay: Determination of LMP7 activity (fluorescence intensity assay, Suc-LLVY-AMC); assay type: biochemical; details: for IC50: 40 μM Suc-LLVY-AMC, 37° C.
Summary of the method: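 Purified human immunoproteasome (0.5 nM or 0.25 nM) preincubated 30 min at 37 °C with compounds (10 μM to 38 pM) in 50 mM Tris pH 7.4, 0.03% SDS. Suc-LLVY-AMC added at 40 μM; after 90 min at 37 °C, fluorescence read at ex 350/em 450 nm.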

[2] = target: Beta5 (purified human constitutive proteasome) (Homo sapiens, UniProt P28074); assay: Determination of Beta5 activity (fluorescence intensity assay, Suc-LLVY-AMC); assay type: biochemical; details: purified human constitutive proteasome 1.0 nM, 40 μM Suc-LLVY-AMC, 37° C.
Summary of the method: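 Purified human constitutive proteasome (1.0 nM) was preincubated 30 min at 37 °C with compounds (10 μM to 38 pM) in 50 mM Tris pH 7.4, 0.03% SDS. Suc-LLVY-AMC (40 μM) was then added and fluorescence (ex 350/em 450 nm) read after 90 min at 37 °C.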

[3] = purified human immuno proteasome 0.5 nM
[4] = purified human immuno proteasome 0.25 nM (examples 79, 80, 83, 84, 85, 87, 88, 89, 90, 91, 93, 94, 96, 97, 101 and 110)

| SMILES | Selectivity LMP7 vs Beta5 [1] | IC50 [1, 3] | IC50 [2] | IC50 [1, 4] |
| --- | --- | --- | --- | --- |
| CCc1cccc(C[C@H](NC(=O)CCn2cc(-c3cccnc3)nn2)B(O)O)c1 [Example 76, (R)-(2-(3-ethylphenyl)-1-(3-(4-(pyridin-3-yl)-1H-1,2,3-triazol-1-yl)propanamido)ethyl)boronic acid] | +++ (+++: Selectivity > 30) | < 50 nM | 500 to 5000 nM |  |
| CCc1cccc(C[C@H](NC(=O)CCn2c(C)nc3ccccc32)B(O)O)c1 [Example 54, (R)-(2-(3-ethylphenyl)-1-(3-(2-methyl-1H-benzo[d]imidazol-1-yl)propanamido)ethyl)boronic acid] | ++ (++: 10 < Selectivity < 30) | < 50 nM | 50 to 500 nM |  |
| COc1cc(F)cc(C[C@H](NC(=O)CCn2cc(-c3ccccc3)nn2)B(O)O)c1 [Example 65, (R)-(2-(3-fluoro-5-methoxyphenyl)-1-(3-(4-phenyl-1H-1,2,3-triazol-1-yl)propanamido)ethyl)boronic acid] | ++ (++: 10 < Selectivity < 30) | < 50 nM | 50 to 500 nM |  |
| COc1cc(C[C@H](NC(=O)CCn2cnc3ccccc32)B(O)O)ccc1C [Example 72, (R)-(1-(3-(1H-benzo[d]imidazol-1-yl)propanamido)-2-(3-methoxy-4-methylphenyl)ethyl)boronic acid] | ++ (++: 10 < Selectivity < 30) | 50 to 500 nM | 500 to 5000 nM |  |
| COc1ccc(C(=O)CCC(=O)N[C@@H](Cc2ccsc2)B(O)O)cc1 [Example 9, [(1R)-1-{[4-(4-methoxyphenyl)-4-oxobutanoyl]amino}-2-(3-thienyl)ethyl]boronic acid] | ++ (++: 10 < Selectivity < 30) | 50 to 500 nM | 500 to 5000 nM |  |
| CC(=O)N[C@@H](Cc1coc2ccccc12)B(O)O [Example 78, (R)-(1-acetamido-2-(benzofuran-3-yl)ethyl)boronic acid] | +++ (+++: Selectivity > 30) | < 50 nM | 500 to 5000 nM |  |
| COc1cc(F)cc(C[C@H](NC(=O)CCc2noc(-c3ccccc3)n2)B(O)O)c1 [Example 61, (R)-(2-(3-fluoro-5-methoxyphenyl)-1-(3-(5-phenyl-1,2,4-oxadiazol-3-yl)propanamido)ethyl)boronic acid] | +++ (+++: Selectivity > 30) | < 50 nM | 500 to 5000 nM |  |
| O=C(CCc1cn(-c2ccccc2)nn1)N[C@@H](Cc1ccsc1)B(O)O [Example 41, [(1R)-1-{[3-(1-phenyl-1H-1,2,3-triazol-4-yl)propanoyl]amino}-2-(3-thienyl)ethyl]boronic acid] | +++ (+++: Selectivity > 30) | < 50 nM | 500 to 5000 nM |  |
| CCc1cccc(C[C@H](NC(=O)[C@H](CC(=O)c2ccccc2)c2ccc(Cl)cc2)B(O)O)c1 (single isomer, unassigned) [Example 15] | +++ (+++: Selectivity > 30) | 50 to 500 nM | > 5000 nM |  |
| COc1ccc(C(=O)CCC(=O)N[C@@H](Cc2ccc(F)c(C(F)(F)F)c2)B(O)O)cc1 [Example 50, (R)-(2-(4-fluoro-3-(trifluoromethyl)phenyl)-1-(4-(4-methoxyphenyl)-4-oxobutanamido)ethyl)boronic acid] | ++ (++: 10 < Selectivity < 30) | 50 to 500 nM | > 5000 nM |  |
| O=C(N[C@@H](Cc1ccsc1)B(O)O)[C@H]1CCC[C@@H]1C(=O)c1ccccc1 (racemic) [Example 5, [1-({[(1RS,2SR)-2-benzoylcyclopentyl]carbonyl}amino)-2-(3-thienyl)ethyl]boronic acid] |  | 500 to 5000 nM | > 5000 nM |  |
| COc1ccc2occ(C[C@H](NC(=O)CCn3c(=O)sc4ccccc43)B(O)O)c2c1 [Example 109, (R)-(2-(5-methoxybenzofuran-3-yl)-1-(3-(2-oxobenzo[d]thiazol-3(2H)-yl)propanamido)ethyl)boronic acid] | + (+: Selectivity < 10) | < 50 nM | 50 to 500 nM |  |
| COc1ccc(C(=O)CCC(=O)N[C@@H](Cc2cccc(OC(F)(F)F)c2)B(O)O)cc1 [Example 48, (R)-(1-(4-(4-methoxyphenyl)-4-oxobutanamido)-2-(3-(trifluoromethoxy)phenyl)ethyl)boronic acid] | ++ (++: 10 < Selectivity < 30) | 50 to 500 nM | 500 to 5000 nM |  |

The remaining lines, values ahead:

| Selectivity LMP7 vs Beta5 [1] | IC50 [1, 3] | IC50 [2] | IC50 [1, 4] | SMILES |
| --- | --- | --- | --- | --- |
| ++ (++: 10 < Selectivity < 30) | 50 to 500 nM | > 5000 nM |  | COc1ccc(C(=O)CCC(=O)N[C@@H](Cc2ccsc2)B(O)O)c(OC)c1 [Example 13, [(1R)-1-{[4-(2,4-dimethoxyphenyl)-4-oxobutanoyl]amino}-2-(3-thienyl)ethyl]boronic acid] |
| +++ (+++: Selectivity > 30) |  | < 50 nM | < 50 nM | O=C(CCn1c(=O)sc2ccccc21)N[C@@H](Cc1ccc2ccccc2c1)B(O)O [Example 96, (R)-(2-(naphthalen-2-yl)-1-(3-(2-oxobenzo[d]thiazol-3(2H)-yl)propanamido)ethyl)boronic acid] |
| ++ (++: 10 < Selectivity < 30) | < 50 nM | 50 to 500 nM |  | COc1ccc(C(=O)CC(Cc2ccccc2)C(=O)N[C@@H](Cc2ccc(OC(F)(F)F)cc2)B(O)O)cc1 (stereo partly drawn) [Example 44, ((1R)-1-(2-benzyl-4-(4-methoxyphenyl)-4-oxobutanamido)-2-(4-(trifluoromethoxy)phenyl)ethyl)boronic acid] |
| +++ (+++: Selectivity > 30) | < 50 nM | 500 to 5000 nM |  | CCOc1cccc(C[C@H](NC(=O)CCc2noc(-c3ccccc3)n2)B(O)O)c1 [Example 68, (R)-(2-(3-ethoxyphenyl)-1-(3-(5-phenyl-1,2,4-oxadiazol-3-yl)propanamido)ethyl)boronic acid] |
| +++ (+++: Selectivity > 30) | < 50 nM | 50 to 500 nM |  | O=C(CCN1CCNCC1)N[C@@H](Cc1coc2ccccc12)B(O)O [Example 92, (R)-(2-(benzofuran-3-yl)-1-(3-(piperazin-1-yl)propanamido)ethyl) boronic acid hydrochloride] |
| ++ (++: 10 < Selectivity < 30) | < 50 nM | < 50 nM |  | O=C(CCn1cnc2ccccc21)N[C@@H](Cc1csc2ccccc12)B(O)O [Example 106, (R)-(1-(3-(1H-benzo[d]imidazol-1-yl)propanamido)-2-(benzo[b]thiophen-3-yl)ethyl)boronic acid] |
| ++ (++: 10 < Selectivity < 30) | < 50 nM | < 50 nM |  | Cn1ncc2cc(C[C@H](NC(=O)CCn3cc(-c4ccccc4)nn3)B(O)O)ccc21 [Example 103, (R)-(2-(1-methyl-1H-indazol-5-yl)-1-(3-(4-phenyl-1H-1,2,3-triazol-1-yl)propanamido)ethyl)boronic acid] |
| + (+: Selectivity < 10) | 50 to 500 nM | 500 to 5000 nM |  | COc1cc(C[C@H](NC(=O)CCn2cnc3ccccc32)B(O)O)ccc1F [Example 69, (R)-(1-(3-(1H-benzo[d]imidazol-1-yl)propanamido)-2-(4-fluoro-3-methoxyphenyl)ethyl)boronic acid] |
| +++ (+++: Selectivity > 30) | 50 to 500 nM | > 5000 nM |  | CCc1cccc(C[C@H](NC(=O)CCC(=O)c2ccc(OC)cc2OC)B(O)O)c1 [Example 11, [(1R)-1-{[4-(2,4-dimethoxyphenyl)-4-oxobutanoyl]amino}-2-(3-ethylphenyl)ethyl]boronic acid] |
| ++ (++: 10 < Selectivity < 30) | < 50 nM | 50 to 500 nM |  | CCc1cccc(C[C@H](NC(=O)CCn2c(=O)sc3ccccc32)B(O)O)c1 [Example 30, ((1R)-2-(3-ethylphenyl)-1-{[3-(2-oxo-1,3-benzothiazol-3(2H)-yl)propanoyl]amino}ethyl)boronic acid] |
| +++ (+++: Selectivity > 30) | 50 to 500 nM | > 5000 nM |  | COc1ccc(C(=O)CCC(=O)N[C@@H](Cc2cccc(C(F)(F)F)c2)B(O)O)cc1 [Example 26, {(1R)-1-{[4-(4-methoxyphenyl)-4-oxobutanoyl]amino}-2-[3-(trifluoromethyl)phenyl]ethyl}boronic acid] |
| ++ (++: 10 < Selectivity < 30) |  | < 50 nM | < 50 nM | O=C(CCn1c(=O)sc2ccccc21)N[C@@H](Cc1coc2ccccc12)B(O)O [Example 87, (R)-(2-(benzofuran-3-yl)-1-(3-(2-oxobenzo[d]thiazol-3(2H)-yl)propanamido)ethyl)boronic acid] |
| ++ (++: 10 < Selectivity < 30) | < 50 nM | < 50 nM |  | O=C(N[C@@H](Cc1ccsc1)B(O)O)[C@@H](Cc1ccccc1)Cc1cn(-c2ccccc2)nn1 [Example 63, ((R)-1-((S)-2-benzyl-3-(1-phenyl-1H-1,2,3-triazol-4-yl)propanamido)-2-(thiophen-3-yl)ethyl)boronic acid] |
| + (+: Selectivity < 10) | < 50 nM | < 50 nM |  | O=C(CCn1cc(-c2ccccc2)nn1)N[C@@H](Cc1csc2ccccc12)B(O)O [Example 104, (R)-(2-(benzo[b]thiophen-3-yl)-1-(3-(4-phenyl-1H-1,2,3-triazol-1-yl)propanamido)ethyl)boronic acid] |

From patent US9688702B2, “Alpha-amino boronic acid derivatives, selective immunoproteasome inhibitors” (Ares Trading S.A, priority 2011, dated 2017)
